According to US20180256673A1, “METHODS FOR TREATING FUNGAL INFECTIONS” (priority 2015, published 2018):
Several values for one entry are separate records, joined by “and”; a condition that tells them apart may be missing. Equal values may be shown once. Read-outs that look alike come from different tables or passages of the source. Starred links: 1 amine or outer side, 2 acyl side, 3 side chain; linkers in the order of their positions; H or OH if unused. Positions of bridges follow the written chain, without caps; N, C: chain ends. Non-standard residues stand in square brackets, D forms with d. Residues, ends and D or L forms follow the SMILES beside them. *: point of attachment. Orn(4R-OH,5R-OCH2CH2NMe3+) = C[N+](C)(C)CCO[C@@H](N[*:3])[C@H](O)C[C@H](N[*:1])C(=O)[*:2]; pTerphenylCO(4''-OnC5H11) = CCCCCOc1ccc(-c2ccc(-c3ccc(C(=O)*)cc3)cc2)cc1; hTyr(3S-OH,4S-OH) = N[C@H](C(=O)O)[C@H](O)[C@@H](O)c1ccc(O)cc1; Pro(3S-OH,4S-Me) = C[C@H]1CN[C@H](C(=O)O)[C@H]1O; Hyp = O=C(O)[C@@H]1C[C@@H](O)CN1

Columns and labels:
Candida albicans = assay: Broth microdilution of invasive fungal isolates (CLSI M27-A3/M38-A2); assay type: cell-based
Candida tropicalis = assay: as above; assay type: cell-based
[1] = tested on: azole-resistant C. albicans (R357); assay: Immunosuppressed rat model of vulvovaginal candidiasis, vaginal CFU; assay type: in vivo, Candida albicans; conditions: once daily for 3 days, intravaginal 0.1 mL/rat (Compound 1 as 3% gel)
[2] = tested on: azole-resistant Candida albicans R357 strain; assay: microbe, parasite or virus in culture; assay type: cell-based; conditions: Candida albicans
C. krusei ATCC 6258 = assay: Broth microdilution MIC (CLSI), Examples 3 and 4; conditions: Pichia kudriavzevii, ATCC6258, 24 h, read-out: Broth MIC
Protocol: (§1) Antifungal susceptibility testing. Candida strains were cultured aerobically at 35° C. on SDA plates or in RPMI 1640 broth (pH 7.0). […] MIC assays were performed in triplicate.

C. tropicalis = assay: Antifungal susceptibility testing (CLSI M27-S4), WT and echinocandin-resistant isolates; conditions: 24 hr
Protocol: Antifungal susceptibility testing. Antifungal susceptibility testing was performed in triplicate for a collection of 95 Candida strains (20 C. albicans, 20 C. glabrata, 2 C. dubliniensis, 15 C. krusei, 19 C. parapsilosis, and 19 C. tropicalis) that included 30 isolates showing an echinocandin resistance (ER) phenotype (caspofungin-resistant) in accordance with the guidelines described in the Clinical and Laboratory Standards Institute (CLSI) document M27-S4. […] Stock solutions of the drugs were kept at −86° C.

Aspergillus fumigatus = assay: Broth microdilution of invasive fungal isolates (CLSI M27-A3/M38-A2), MEC; assay type: cell-based; conditions: 56 isolates
Candida orthopsilosis = assay: Broth microdilution of invasive fungal isolates (CLSI M27-A3/M38-A2); assay type: cell-based; conditions: 10 isolates
Candida glabrata = assay: microbe, parasite or virus in culture; assay type: cell-based
[3] = tested on: C. glabrata ATCC 90030, ATCC 2001; assay: Broth microdilution MIC (CLSI), Examples 3 and 4; conditions: Nakaseomyces glabratus
Protocol: as §1

[4] = tested on: 1,3-β-D-glucan synthase from C. glabrata; assay: Glucan synthase (GS) inhibition assay
[5] = tested on: Cryptococcus neoformans var. grubii; assay: Broth microdilution of invasive fungal isolates (CLSI M27-A3/M38-A2); assay type: cell-based; conditions: 19 isolates
[6] = tested on: C. glabrata ATCC 90030, ATCC 2001; assay type: cell-based, Candida glabrata; conditions: for Freq. (replicate mutation frequency): replicate plates 1-3, listed as CMP1; for Plate concentration: SDA, minimum concentration to cleanly inhibit growth
Protocol: Spontaneous mutant selection. […] Three individual colonies from each strain were used to start cultures in RPMI. […] One milliliter aliquots were spread onto SDA plates containing drug with sterile glass beads. Starting viable count was enumerated by triplicate plating of serial dilutions of the starting inoculum. […] Glycerol stocks of putative mutant colonies were stored at −80° C. […] Spontaneous mutation frequencies were calculated by dividing the number of resistant colonies on a given plate by the starting inoculum plated. A subset of mutants (weighted heavily towards those selected with CMP1) were then evaluated by MIC and sequencing of FKS gene hot spot regions.

[7] = tested on: azole-resistant Candida albicans (R357); assay: Disseminated infection model in neutropenic ICR mice, kidney fungal counts (Example 10, Tables 22-23); assay type: in vivo
[8] = target: 1,3-β-D-glucan synthase from C. albicans (Candida albicans, UniProt O13428, F641S); assay: Glucan synthase (GS) inhibition assay; conditions: IC50, DPL18; Fks1 F641S
[9] = target: 1,3-β-D-glucan synthase from C. albicans (Candida albicans, UniProt O13428, S645P); assay: Glucan synthase (GS) inhibition assay; conditions: IC50, DPL20; Fks1 S645P
[10] = target: 1,3-β-D-glucan synthase from C. albicans (Candida albicans, UniProt O13428); assay: Glucan synthase (GS) inhibition assay

Sequence of 1,3-β-D-glucan synthase from C. albicans (Candida albicans, UniProt O13428, S645P) (O13428 entry or part of it S645P): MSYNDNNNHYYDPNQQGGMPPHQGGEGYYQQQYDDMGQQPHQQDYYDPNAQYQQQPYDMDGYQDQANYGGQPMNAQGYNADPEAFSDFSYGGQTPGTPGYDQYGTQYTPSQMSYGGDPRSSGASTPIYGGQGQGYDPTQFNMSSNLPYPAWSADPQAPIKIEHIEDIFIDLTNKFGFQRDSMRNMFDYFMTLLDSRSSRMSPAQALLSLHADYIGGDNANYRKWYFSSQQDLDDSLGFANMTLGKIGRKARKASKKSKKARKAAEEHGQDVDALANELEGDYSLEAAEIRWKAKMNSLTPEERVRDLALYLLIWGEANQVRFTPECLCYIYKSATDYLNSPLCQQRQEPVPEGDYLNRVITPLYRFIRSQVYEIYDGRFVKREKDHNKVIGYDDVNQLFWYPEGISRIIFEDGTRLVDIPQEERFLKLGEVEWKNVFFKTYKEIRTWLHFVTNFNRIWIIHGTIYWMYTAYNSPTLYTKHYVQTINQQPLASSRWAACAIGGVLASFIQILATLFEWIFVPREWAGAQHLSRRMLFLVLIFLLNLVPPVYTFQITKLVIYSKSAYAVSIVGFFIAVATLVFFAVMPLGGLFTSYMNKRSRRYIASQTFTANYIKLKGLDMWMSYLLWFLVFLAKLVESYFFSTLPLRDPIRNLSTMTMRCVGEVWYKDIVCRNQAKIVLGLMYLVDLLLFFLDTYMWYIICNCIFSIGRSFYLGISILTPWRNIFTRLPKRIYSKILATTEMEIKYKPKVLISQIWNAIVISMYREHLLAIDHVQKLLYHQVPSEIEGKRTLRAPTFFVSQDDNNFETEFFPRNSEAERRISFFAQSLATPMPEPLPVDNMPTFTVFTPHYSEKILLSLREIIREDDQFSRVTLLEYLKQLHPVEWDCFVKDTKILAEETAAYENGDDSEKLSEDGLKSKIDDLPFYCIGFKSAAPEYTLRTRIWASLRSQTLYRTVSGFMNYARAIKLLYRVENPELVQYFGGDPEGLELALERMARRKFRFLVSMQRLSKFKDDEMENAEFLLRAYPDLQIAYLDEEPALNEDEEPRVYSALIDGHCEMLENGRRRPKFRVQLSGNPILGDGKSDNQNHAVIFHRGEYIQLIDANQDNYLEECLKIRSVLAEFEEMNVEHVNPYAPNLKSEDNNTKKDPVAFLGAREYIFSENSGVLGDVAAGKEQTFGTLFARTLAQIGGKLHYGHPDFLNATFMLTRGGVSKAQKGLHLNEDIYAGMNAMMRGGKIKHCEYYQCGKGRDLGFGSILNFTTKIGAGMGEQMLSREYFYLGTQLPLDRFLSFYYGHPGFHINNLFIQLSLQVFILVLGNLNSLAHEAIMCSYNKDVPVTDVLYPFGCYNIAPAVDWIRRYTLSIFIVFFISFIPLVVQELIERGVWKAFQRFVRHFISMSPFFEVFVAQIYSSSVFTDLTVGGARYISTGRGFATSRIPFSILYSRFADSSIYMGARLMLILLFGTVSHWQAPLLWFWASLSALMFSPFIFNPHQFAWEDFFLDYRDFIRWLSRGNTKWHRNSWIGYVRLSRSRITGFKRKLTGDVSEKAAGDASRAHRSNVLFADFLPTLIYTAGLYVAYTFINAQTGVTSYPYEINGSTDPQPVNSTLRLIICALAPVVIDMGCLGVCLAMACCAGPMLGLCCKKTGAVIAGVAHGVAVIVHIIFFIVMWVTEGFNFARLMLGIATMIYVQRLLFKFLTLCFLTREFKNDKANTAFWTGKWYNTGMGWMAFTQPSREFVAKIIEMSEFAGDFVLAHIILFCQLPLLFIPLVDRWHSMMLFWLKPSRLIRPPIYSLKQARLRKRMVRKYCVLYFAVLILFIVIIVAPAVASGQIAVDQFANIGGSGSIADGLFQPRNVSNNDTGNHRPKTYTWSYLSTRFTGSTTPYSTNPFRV
Sequence of 1,3-β-D-glucan synthase from C. albicans (Candida albicans, UniProt O13428, F641S) (O13428 entry or part of it F641S): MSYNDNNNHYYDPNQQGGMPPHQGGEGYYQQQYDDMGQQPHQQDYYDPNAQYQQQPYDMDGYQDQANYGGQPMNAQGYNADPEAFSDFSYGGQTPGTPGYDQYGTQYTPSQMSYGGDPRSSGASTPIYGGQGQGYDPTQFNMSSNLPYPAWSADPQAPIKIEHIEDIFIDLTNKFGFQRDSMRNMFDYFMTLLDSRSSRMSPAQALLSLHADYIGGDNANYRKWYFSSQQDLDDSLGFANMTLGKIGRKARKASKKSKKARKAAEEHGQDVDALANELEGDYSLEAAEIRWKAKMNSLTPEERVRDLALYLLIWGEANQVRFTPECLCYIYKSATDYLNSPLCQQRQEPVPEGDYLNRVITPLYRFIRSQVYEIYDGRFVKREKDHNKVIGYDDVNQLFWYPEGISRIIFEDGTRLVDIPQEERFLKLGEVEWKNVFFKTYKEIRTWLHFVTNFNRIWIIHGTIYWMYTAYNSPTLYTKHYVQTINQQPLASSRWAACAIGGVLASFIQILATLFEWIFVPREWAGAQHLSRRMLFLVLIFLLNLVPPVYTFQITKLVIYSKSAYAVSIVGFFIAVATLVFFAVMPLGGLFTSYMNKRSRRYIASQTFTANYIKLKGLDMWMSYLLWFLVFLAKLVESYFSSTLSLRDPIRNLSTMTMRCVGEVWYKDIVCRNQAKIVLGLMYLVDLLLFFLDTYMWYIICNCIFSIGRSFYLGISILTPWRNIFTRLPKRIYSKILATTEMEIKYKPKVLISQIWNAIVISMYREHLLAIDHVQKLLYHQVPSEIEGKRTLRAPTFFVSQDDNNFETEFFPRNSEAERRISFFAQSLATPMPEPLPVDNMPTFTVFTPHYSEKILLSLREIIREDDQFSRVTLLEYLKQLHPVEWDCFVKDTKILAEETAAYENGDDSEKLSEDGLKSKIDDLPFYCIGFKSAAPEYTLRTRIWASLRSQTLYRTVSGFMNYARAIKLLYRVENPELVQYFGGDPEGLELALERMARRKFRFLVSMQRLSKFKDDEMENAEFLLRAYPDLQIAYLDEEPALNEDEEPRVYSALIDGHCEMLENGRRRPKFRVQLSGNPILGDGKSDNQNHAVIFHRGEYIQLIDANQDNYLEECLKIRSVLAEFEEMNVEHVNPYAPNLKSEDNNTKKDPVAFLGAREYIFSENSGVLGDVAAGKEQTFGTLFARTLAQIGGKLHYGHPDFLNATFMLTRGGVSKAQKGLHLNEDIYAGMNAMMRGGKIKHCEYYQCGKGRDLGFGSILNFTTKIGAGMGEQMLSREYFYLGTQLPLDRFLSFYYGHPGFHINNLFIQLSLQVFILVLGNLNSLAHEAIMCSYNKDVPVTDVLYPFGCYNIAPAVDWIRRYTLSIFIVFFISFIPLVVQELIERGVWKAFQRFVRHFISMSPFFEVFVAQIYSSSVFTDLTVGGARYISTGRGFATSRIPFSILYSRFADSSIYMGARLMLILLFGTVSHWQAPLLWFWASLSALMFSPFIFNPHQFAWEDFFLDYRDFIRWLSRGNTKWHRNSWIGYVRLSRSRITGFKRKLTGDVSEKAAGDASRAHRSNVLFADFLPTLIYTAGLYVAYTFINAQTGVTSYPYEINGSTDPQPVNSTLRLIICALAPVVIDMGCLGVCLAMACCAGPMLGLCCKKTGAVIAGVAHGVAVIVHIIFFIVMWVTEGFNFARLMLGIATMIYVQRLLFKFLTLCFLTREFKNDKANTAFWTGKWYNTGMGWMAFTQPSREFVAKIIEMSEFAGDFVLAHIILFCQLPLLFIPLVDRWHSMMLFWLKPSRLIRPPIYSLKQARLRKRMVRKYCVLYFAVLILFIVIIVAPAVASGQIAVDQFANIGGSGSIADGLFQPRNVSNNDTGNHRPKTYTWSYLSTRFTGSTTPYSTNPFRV

CCCCCOc1ccc(-c2ccc(-c3ccc(C(=O)N[C@H]4C[C@@H](O)[C@@H](OCC[N+](C)(C)C)NC(=O)[C@@H]5[C@@H](O)[C@@H](C)CN5C(=O)[C@H]([C@@H](C)O)NC(=O)[C@H]([C@H](O)[C@@H](O)c5ccc(O)cc5)NC(=O)[C@@H]5C[C@@H](O)CN5C(=O)[C@H]([C@@H](C)O)NC4=O)cc3)cc2)cc1 [Compound 1] ({pTerphenylCO(4''-OnC5H11)}-[Orn(4R-OH,5R-OCH2CH2NMe3+)]T[Hyp][hTyr(3S-OH,4S-OH)]T[Pro(3S-OH,4S-Me)]; lactam 1-C)
Cumulative % of isolates inhibited at MIC 0.015 μg/mL (Candida albicans; 251 isolates): (49.4) %
Cumulative % of isolates inhibited at MIC 0.03 μg/mL (Candida albicans; 251 isolates): (85.7) %
Cumulative % of isolates inhibited at MIC 0.06 μg/mL (Candida albicans; 251 isolates): (96.8) %
Cumulative % of isolates inhibited at MIC 0.12 μg/mL (Candida albicans; 251 isolates): (100.0) %
Cumulative % of isolates inhibited at MIC ≤0.008 μg/mL (Candida albicans; 251 isolates): (6.8) %
Number of isolates inhibited at MIC 0.015 μg/mL (Candida albicans; 251 isolates): 107
Number of isolates inhibited at MIC 0.03 μg/mL (Candida albicans; 251 isolates): 91
Number of isolates inhibited at MIC 0.06 μg/mL (Candida albicans; 251 isolates): 28
Number of isolates inhibited at MIC 0.12 μg/mL (Candida albicans; 251 isolates): 8
Number of isolates inhibited at MIC ≤0.008 μg/mL (Candida albicans; 251 isolates): 17
MIC50 (Candida albicans; Candida albicans, 251 isolates, read-out: MIC50): 0.03 mg/L
MIC90 (Candida albicans; Candida albicans, 251 isolates, read-out: MIC90): 0.06 mg/L
concentration at which all isolates were inhibited (Candida albicans; all 251 isolates): ≤ 0.12 µg/mL
Cumulative % of isolates inhibited at MIC 0.015 μg/mL (Candida tropicalis; 51 isolates): (56.9) %
Cumulative % of isolates inhibited at MIC 0.03 μg/mL (Candida tropicalis; 51 isolates): (88.2) %
Cumulative % of isolates inhibited at MIC 0.06 μg/mL (Candida tropicalis; 51 isolates): (100.0) %
Cumulative % of isolates inhibited at MIC ≤0.008 μg/mL (Candida tropicalis; 51 isolates): (3.9) %
Number of isolates inhibited at MIC 0.015 μg/mL (Candida tropicalis; 51 isolates): 27
Number of isolates inhibited at MIC 0.03 μg/mL (Candida tropicalis; 51 isolates): 16
Number of isolates inhibited at MIC 0.06 μg/mL (Candida tropicalis; 51 isolates): 6
Number of isolates inhibited at MIC ≤0.008 μg/mL (Candida tropicalis; 51 isolates): 2
MIC50 (Candida tropicalis; Candida tropicalis, 51 isolates, read-out: MIC50): 0.015 mg/L
MIC90 (Candida tropicalis; Candida tropicalis, 51 isolates, read-out: MIC90): 0.06 mg/L
concentration at which all isolates were inhibited (Candida tropicalis; n=51): ≤ 0.06 µg/mL
reduction in vaginal CFU compared with no treatment control ([1]; a week later, 8 days after treatment end (day 12)): > 3 log-fold
reduction in vaginal CFU compared with no treatment control ([1]; one day after treatment end (day 5)): 3.8 log-fold
MIC [2]: 0.125 mg/L
MIC (C. krusei ATCC 6258): 0.06 mg/L
MIC median (range) (C. tropicalis; ER (4 isolates)): 2.00 (0.5-2) mg/L
MIC median (range) (C. tropicalis; WT (15 isolates)): 0.03 (0.03)^ mg/L
Cumulative % of isolates inhibited at MEC 0.015 μg/mL (Aspergillus fumigatus): (92.9) %
Cumulative % of isolates inhibited at MEC 0.03 μg/mL (Aspergillus fumigatus): (100.0) %
Cumulative % of isolates inhibited at MEC ≤0.008 μg/mL (Aspergillus fumigatus): (41.1) %
Number of isolates inhibited at MEC 0.015 μg/mL (Aspergillus fumigatus): 29
Number of isolates inhibited at MEC 0.03 μg/mL (Aspergillus fumigatus): 4
Number of isolates inhibited at MEC ≤0.008 μg/mL (Aspergillus fumigatus): 23
Cumulative % of isolates inhibited at MIC 0.12 μg/mL (Candida orthopsilosis): (10.0) %
Cumulative % of isolates inhibited at MIC 0.25 μg/mL (Candida orthopsilosis): (40.0) %
Cumulative % of isolates inhibited at MIC 0.5 μg/mL (Candida orthopsilosis): (50.0) %
Cumulative % of isolates inhibited at MIC 1 μg/mL (Candida orthopsilosis): (90.0) %
Cumulative % of isolates inhibited at MIC 2 μg/mL (Candida orthopsilosis): (100.0) %
Number of isolates inhibited at MIC 0.12 μg/mL (Candida orthopsilosis): 1
Number of isolates inhibited at MIC 0.25 μg/mL (Candida orthopsilosis): 3
Number of isolates inhibited at MIC 0.5 μg/mL (Candida orthopsilosis): 1
Number of isolates inhibited at MIC 1 μg/mL (Candida orthopsilosis): 4
Number of isolates inhibited at MIC 2 μg/mL (Candida orthopsilosis): 1
MIC50 (Candida orthopsilosis; Lodderomyces orthopsilosis, read-out: MIC50): 0.5 mg/L
MIC90 (Candida orthopsilosis; Lodderomyces orthopsilosis, read-out: MIC90): 1 mg/L
Cumulative % of isolates inhibited at MIC 0.015 μg/mL (Candida glabrata): (3.0) %
Cumulative % of isolates inhibited at MIC 0.03 μg/mL (Candida glabrata): (62.0) %
Cumulative % of isolates inhibited at MIC 0.06 μg/mL (Candida glabrata): (91.0) %
Cumulative % of isolates inhibited at MIC 0.25 μg/mL (Candida glabrata): (95.0) %
Cumulative % of isolates inhibited at MIC 0.5 μg/mL (Candida glabrata): (95.0) %
Cumulative % of isolates inhibited at MIC 1 μg/mL (Candida glabrata): (96.0) %
Cumulative % of isolates inhibited at MIC 2 μg/mL (Candida glabrata): (99.0) %
Cumulative % of isolates inhibited at MIC 4 μg/mL (Candida glabrata): (100.0) %
Number of isolates inhibited at MIC 0.015 μg/mL (Candida glabrata): 3
Number of isolates inhibited at MIC 0.03 μg/mL (Candida glabrata): 59
Number of isolates inhibited at MIC 0.06 μg/mL (Candida glabrata): 29
Number of isolates inhibited at MIC 0.12 μg/mL (Candida glabrata): 4
Number of isolates inhibited at MIC 0.25 μg/mL (Candida glabrata): 0
Number of isolates inhibited at MIC 0.5 μg/mL (Candida glabrata): 0
Number of isolates inhibited at MIC 1 μg/mL (Candida glabrata): 1
Number of isolates inhibited at MIC 2 μg/mL (Candida glabrata): 3
Number of isolates inhibited at MIC 4 μg/mL (Candida glabrata): 1
MIC50 (Candida glabrata; Nakaseomyces glabratus, read-out: MIC50): 0.03 mg/L
MIC90 (Candida glabrata; Nakaseomyces glabratus, read-out: MIC90): 0.06 mg/L
MIC (Candida glabrata; Nakaseomyces glabratus, read-out: MIC results): 2 to 4 mg/L
MIC ([3]; ATCC2001|ATCC90030, 24 h, read-out: Broth MIC, ATCC 2001 wild-type, 24 h, ~50% inhibition): 0.125 mg/L
MIC ([3]; ATCC2001|ATCC90030, 24 h, read-out: Broth MIC, ATCC 90030 wild-type, 24 h, ~50% inhibition): 0.06 mg/L
MIC ([3]; ATCC2001|ATCC90030, ATCC 2001 spontaneous mutant, Fks2 HS1 D666N): 0.5 mg/L
MIC ([3]; ATCC2001|ATCC90030, ATCC 2001 spontaneous mutant, Fks2 HS1 D666Y): 0.5 mg/L
MIC ([3]; ATCC2001|ATCC90030, ATCC 2001 spontaneous mutant, Fks2 HS1 R665G): 0.5 mg/L
MIC ([3]; ATCC2001|ATCC90030, ATCC 2001 spontaneous mutant, Fks2 HS1 S663F): 1 mg/L
MIC ([3]; ATCC2001|ATCC90030, ATCC 2001 spontaneous mutant, Fks2 HS1 ΔF659): 2 mg/L
MIC ([3]; ATCC2001|ATCC90030, ATCC 2001 spontaneous mutant, Fks2 HS2 R1378S): 0.25 mg/L
MIC ([3]; ATCC2001|ATCC90030, ATCC 90030 spontaneous mutant, Fks2 HS1 D666H): 0.25 mg/L
MIC ([3]; ATCC2001|ATCC90030, ATCC 90030 spontaneous mutant, Fks2 HS1 ΔF659): 2 mg/L
IC50 ([4]; DPL50, WT): 0.00257 mg/L
GS activity after treatment with a high dose ([4]; F659del mutant GS, 10,000 ng/mL): did not exhibit significant reductions in activity
Cumulative % of isolates inhibited at MIC 8 μg/mL [5]: (31.6) %
Cumulative % of isolates inhibited at MIC >8 μg/mL [5]: (100.0) %
Number of isolates inhibited at MIC 8 μg/mL [5]: 6
Number of isolates inhibited at MIC >8 μg/mL [5]: 13
MIC50 ([5]; Cryptococcus neoformans, read-out: MIC50): 8 mg/L
MIC90 ([5]; Cryptococcus neoformans, read-out: MIC90): 8 mg/L
Median mutation frequency ([6]; ATCC 2001): 3.16E−08
Freq. (replicate mutation frequency) ([6]; ATCC 2001): 3.16E−08 and 3.79E−08 and 1.17E−08
Median mutation frequency ([6]; ATCC 90030): 1.35E−08
Freq. (replicate mutation frequency) ([6]; ATCC 90030): 3.52E−08 and 1.26E−08 and 1.35E−08
Plate concentration ([6]; ATCC 2001): 0.25 µg/mL
Plate concentration ([6]; ATCC 90030): 0.25 µg/mL
reduction in fungal counts ([7]; 3, 10, and 30 mg/kg IP once, 48 and 72 hr time points): two log reduction
antimicrobial effect versus vehicle (one-way ANOVA, Dunnett's test) ([7]; 48 and 72 hr after infection, Compound 1 3, 10, 30 mg/kg IP, amphotericin B 1 and 3 mg/kg IV, fluconazole 20 mg/kg PO): Significant antimicrobial effects
IC50 [8]: 0.283 µM
IC50 [9]: 2.15 µM
IC50 ([10]; IC50, DPL1002, WT): 0.0116 µM
IC50 ([10]; IC50, glucan synthase, ATCC 90028, WT): 0.0114 µM
IC50 ([10]; glucan synthase, DPL22, Fks1p S645P/S): 0.0245 µM
